Test results published in US20100266589A1, “ADJUVANT CANCER THERAPY” (priority 2009, published 2010).

Tested on: patients with resected stages II and III carcinoma of the colon
Assay: NSABP C-08 clinical trial: bevacizumab added to mFOLFOX6 as adjuvant therapy
Format: in vivo
Excerpt: This example concerns analysis of results obtained from colorectal cancer subjects treated in the National Surgical Adjuvant Breast and Bowel Project (NSABP C-08) clinical trial. The primary aim of the study was to determine the clinical benefit of adding bevacizumab to standard chemotherapy for treating colorectal cancer, as measured by disease-free survival (DFS). A secondary goal was to determine if there was clinical benefit in prolonging overall survival. The standard chemotherapy used in this trial was a combination of leucovorin, 5-fluorouracil and oxaliplatin. This trial evaluated the efficacy of bevacizumab (AVASTIN®) as adjuvant therapy for patients with resected stages II and III carcinoma of the colon.
In the NSABP C-08 trial, the following treatment protocol was used:
Arm A/Group 1: modified FOLFOX6 (mFOLFOX6: oxaliplatin (85 mg/m^2) with concurrent leucovorin (400 mg/m^2) and 5-FU (400 mg/m^2 IV bolus) on Day 1 and 5-FU (2400 mg/m^2) over 46 hours on Day 1 and Day 2) q 14 days for 12 cycles (6 months);
Arm B/Group 2: modified FOLFOX6 q 14 days for 12 cycles (6 months) plus bevacizumab administered before oxaliplatin on Day 1 of each chemotherapy cycle (5 mg/kg IV) q 14 days for 1 year.
The primary endpoint of this trial was duration of disease free survival (DFS). […]
2,710 patients were accrued to the study (1,356 to the contol arm and 1,354 to the experimental arm). 18 patients on the control arm and 20 patients on the experimental arm were not evaluated for efficacy due to no follow-up or positive surgical margins. […]
Time to an event was measured from randomization. All p-values, other than the primary endpoint, were evaluated as significant at the 0.05 level two-sided. […] Hazard ratios (HR) were calculated from Cox models and p-values from time to event were from the log rank test. […] Smooth estimates of the underlying hazard functions were calculated by the method of Muller and Wang (Biometrics 1994 50:61-76). Smooth estimates of the ratio of the underlying hazards were calculated by the method of Gilbert et al. (Biometrics 2002 58:773-80).

In the case of “Bevacizumab: recombinant humanized anti-VEGF monoclonal antibody; human IgG1 framework with CDRs from murine antibody A.4.6.1”, the HR (DFS, 1.25 years after initiation of treatment, vs mFOLFOX6 alone, 95% CI 0.48-0.78, p <0.0001) is reported as 0.61, the “toxicities or adverse effects (in words)” value (added to chemotherapy vs chemotherapy alone) is reported as “not associated with any increased toxicities or adverse effects” and the “effect on DFS (in words)” value (added to chemotherapy vs chemotherapy alone, during the first year (active treatment phase)) is reported as “significantly increased DFS”.
